System: 435261-313-R-J1-PDC tumor spheroid viability
Experiment: Anticancer human tumor 435261-313-R-J1-PDC patient-derived colon adenocarcinoma cell line growth inhibition [PI3K]
Details: spheroids with HUVEC and MSC; for IC50: curve of first compound; for viability, T/C: stronger effect = lower value
Method in brief: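 Multi-cell spheroids combine tumor cells with HUVEC and human MSCs, treated with targeted agents alone or with inavolisib, alpelisib, duvelisib or copanlisib. Concentrations fall in half-log steps from at or near clinical Cmax, or from 10 microM where Cmax is unknown; viability read-out.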

[1] = second compound 0.00316 µM, first compound 0.0316 µM
[2] = second compound 0.00316 µM, first compound 0.1 µM
[3] = second compound 0.01 µM, first compound 0.0316 µM
[4] = second compound 0.01 µM, first compound 0.1 µM
[5] = second compound 0.0316 µM, first compound 0.0316 µM
[6] = second compound 0.0316 µM, first compound 0.1 µM
[7] = second compound 0.1 µM, first compound 0.0316 µM
[8] = second compound 0.1 µM, first compound 0.1 µM
[9] = second compound 0.316 µM, first compound 0.0316 µM
[10] = second compound 0.316 µM, first compound 0.1 µM
[11] = second compound 1 µM, first compound 0.0316 µM
[12] = second compound 1 µM, first compound 0.1 µM
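Also: spheroids exposed to compounds for 7 days.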

C[C@@H](NC(=O)c1ncnc(N)c1Cl)c1ncc(C(=O)Nc2cc(C(F)(F)F)c(Cl)cn2)s1 + COc1c(OCCCN2CCOCC2)ccc2c3n(c(=NC(=O)c4cnc(N)nc4)nc12)CCN3 was tested, and the IC50 (second compound 0.00316 µM) was > 10 µM, the IC50 (second compound 0.01 µM) was > 10 µM and the IC50 (second compound 0.0316 µM) was < 0.0316 µM. The IC50 (second compound 0.1 µM) was < 0.0316 µM, the IC50 (second compound 0.316 µM) was < 0.0316 µM and the IC50 (second compound 1 µM) was < 0.0316 µM. The viability, T/C [1] was 133%, the viability, T/C [2] was 138% and the viability, T/C (second compound 0.00316 µM, first compound 0.316 µM) was 70%. It also gave a viability, T/C (second compound 0.00316 µM, first compound 1 µM) of 120%, a viability, T/C (second compound 0.00316 µM, first compound 3.16 µM) of 99.2% and a viability, T/C (second compound 0.00316 µM, first compound 10 µM) of 78.6%. For the same molecule, the viability, T/C [3] was 66.2%, the viability, T/C [4] was 70.4% and the viability, T/C (second compound 0.01 µM, first compound 0.316 µM) was 69.8%. For the same molecule, the viability, T/C (second compound 0.01 µM, first compound 1 µM) was 103%, the viability, T/C (second compound 0.01 µM, first compound 3.16 µM) was 63.3% and the viability, T/C (second compound 0.01 µM, first compound 10 µM) was 53.2%. The viability, T/C [5] was 32.7%, the viability, T/C [6] was 33.6% and the viability, T/C (second compound 0.0316 µM, first compound 0.316 µM) was 47.5%. It also gave a viability, T/C (second compound 0.0316 µM, first compound 1 µM) of 30.1%, a viability, T/C (second compound 0.0316 µM, first compound 3.16 µM) of 37.8% and a viability, T/C (second compound 0.0316 µM, first compound 10 µM) of 17.5%. For the same molecule, the viability, T/C [7] was 20.4%, the viability, T/C [8] was 21.7% and the viability, T/C (second compound 0.1 µM, first compound 0.316 µM) was 22%. The viability, T/C (second compound 0.1 µM, first compound 1 µM) was 19.5%, the viability, T/C (second compound 0.1 µM, first compound 3.16 µM) was 18.2% and the viability, T/C (second compound 0.1 µM, first compound 10 µM) was 8.2%. The viability, T/C [9] was 10.8%, the viability, T/C [10] was 13.1% and the viability, T/C (second compound 0.316 µM, first compound 0.316 µM) was 12.2%. The viability, T/C (second compound 0.316 µM, first compound 1 µM) was 13.3%, the viability, T/C (second compound 0.316 µM, first compound 3.16 µM) was 10.5% and the viability, T/C (second compound 0.316 µM, first compound 10 µM) was 3.91%. For the same molecule, the viability, T/C [11] was 5.11%, the viability, T/C [12] was 6.44% and the viability, T/C (second compound 1 µM, first compound 0.316 µM) was 7.13%. The viability, T/C (second compound 1 µM, first compound 1 µM) was 7.09%, the viability, T/C (second compound 1 µM, first compound 3.16 µM) was 5.4% and the viability, T/C (second compound 1 µM, first compound 10 µM) was 2.3%.
For Cn1ncnc1[C@H]1c2n[nH]c(=O)c3cc(F)cc(c23)N[C@@H]1c1ccc(F)cc1 + COc1c(OCCCN2CCOCC2)ccc2c3n(c(=NC(=O)c4cnc(N)nc4)nc12)CCN3, the IC50 (second compound 0.00316 µM) was 0.0477 µM, the IC50 (second compound 0.01 µM) was 0.000895 µM and the IC50 (second compound 0.0316 µM) was < 0.000316 µM. The IC50 (second compound 0.1 µM) was < 0.000316 µM, the IC50 (second compound 0.316 µM) was < 0.000316 µM and the IC50 (second compound 1 µM) was < 0.000316 µM. For the same molecule, the viability, T/C (second compound 0.00316 µM, first compound 0.000316 µM) was 87%, the viability, T/C (second compound 0.00316 µM, first compound 0.001 µM) was 41.6% and the viability, T/C (second compound 0.00316 µM, first compound 0.00316 µM) was 76%. The viability, T/C (second compound 0.00316 µM, first compound 0.01 µM) was 66.4%, the viability, T/C [1] was 55% and the viability, T/C [2] was 39%. For the same molecule, the viability, T/C (second compound 0.01 µM, first compound 0.000316 µM) was 62.5%, the viability, T/C (second compound 0.01 µM, first compound 0.001 µM) was 51% and the viability, T/C (second compound 0.01 µM, first compound 0.00316 µM) was 36.7%. The viability, T/C (second compound 0.01 µM, first compound 0.01 µM) was 52.7%, the viability, T/C [3] was 58.7% and the viability, T/C [4] was 35%. The viability, T/C (second compound 0.0316 µM, first compound 0.000316 µM) was 24.6%, the viability, T/C (second compound 0.0316 µM, first compound 0.001 µM) was 23% and the viability, T/C (second compound 0.0316 µM, first compound 0.00316 µM) was 27.1%. The viability, T/C (second compound 0.0316 µM, first compound 0.01 µM) was 21.2%, the viability, T/C [5] was 21.9% and the viability, T/C [6] was 22.5%. It also gave a viability, T/C (second compound 0.1 µM, first compound 0.000316 µM) of 17.3%, a viability, T/C (second compound 0.1 µM, first compound 0.001 µM) of 16.6% and a viability, T/C (second compound 0.1 µM, first compound 0.00316 µM) of 20.1%. For the same molecule, the viability, T/C (second compound 0.1 µM, first compound 0.01 µM) was 15.8%, the viability, T/C [7] was 16.8% and the viability, T/C [8] was 14.4%. It also gave a viability, T/C (second compound 0.316 µM, first compound 0.000316 µM) of 8.3%, a viability, T/C (second compound 0.316 µM, first compound 0.001 µM) of 7.7% and a viability, T/C (second compound 0.316 µM, first compound 0.00316 µM) of 6.69%. The viability, T/C (second compound 0.316 µM, first compound 0.01 µM) was 7.31%, the viability, T/C [9] was 8.06% and the viability, T/C [10] was 7.38%. It also gave a viability, T/C (second compound 1 µM, first compound 0.000316 µM) of 3.97%, a viability, T/C (second compound 1 µM, first compound 0.001 µM) of 3.84% and a viability, T/C (second compound 1 µM, first compound 0.00316 µM) of 3.78%. For the same molecule, the viability, T/C (second compound 1 µM, first compound 0.01 µM) was 3.5%, the viability, T/C [11] was 4.54% and the viability, T/C [12] was 2.9%.
